Results as given in ChEMBL document CHEMBL1201862, “PubChem BioAssay data set” (2004).
The source made the active and inactive calls. Where a SMILES comes first, the peptide text is derived from it. The star is where a group is joined. Boc = CC(C)(C)OC(=O)*; Bn = c1ccc(C*)cc1; NHNH2 = NN*

Legend:
[1] = biological target: Induced myeloid leukemia cell differentiation protein Mcl-1 (Homo sapiens, UniProt Q07820); type: functional
[2] = biological target: T1, Voltage-gated N-type calcium channel alpha-1B subunit/Amyloid beta A4 precursor protein-binding family A member 1 (Homo sapiens, UniProt Q00975+Q02410); type: protein assay
T1 sequence (Q00975 whole entry): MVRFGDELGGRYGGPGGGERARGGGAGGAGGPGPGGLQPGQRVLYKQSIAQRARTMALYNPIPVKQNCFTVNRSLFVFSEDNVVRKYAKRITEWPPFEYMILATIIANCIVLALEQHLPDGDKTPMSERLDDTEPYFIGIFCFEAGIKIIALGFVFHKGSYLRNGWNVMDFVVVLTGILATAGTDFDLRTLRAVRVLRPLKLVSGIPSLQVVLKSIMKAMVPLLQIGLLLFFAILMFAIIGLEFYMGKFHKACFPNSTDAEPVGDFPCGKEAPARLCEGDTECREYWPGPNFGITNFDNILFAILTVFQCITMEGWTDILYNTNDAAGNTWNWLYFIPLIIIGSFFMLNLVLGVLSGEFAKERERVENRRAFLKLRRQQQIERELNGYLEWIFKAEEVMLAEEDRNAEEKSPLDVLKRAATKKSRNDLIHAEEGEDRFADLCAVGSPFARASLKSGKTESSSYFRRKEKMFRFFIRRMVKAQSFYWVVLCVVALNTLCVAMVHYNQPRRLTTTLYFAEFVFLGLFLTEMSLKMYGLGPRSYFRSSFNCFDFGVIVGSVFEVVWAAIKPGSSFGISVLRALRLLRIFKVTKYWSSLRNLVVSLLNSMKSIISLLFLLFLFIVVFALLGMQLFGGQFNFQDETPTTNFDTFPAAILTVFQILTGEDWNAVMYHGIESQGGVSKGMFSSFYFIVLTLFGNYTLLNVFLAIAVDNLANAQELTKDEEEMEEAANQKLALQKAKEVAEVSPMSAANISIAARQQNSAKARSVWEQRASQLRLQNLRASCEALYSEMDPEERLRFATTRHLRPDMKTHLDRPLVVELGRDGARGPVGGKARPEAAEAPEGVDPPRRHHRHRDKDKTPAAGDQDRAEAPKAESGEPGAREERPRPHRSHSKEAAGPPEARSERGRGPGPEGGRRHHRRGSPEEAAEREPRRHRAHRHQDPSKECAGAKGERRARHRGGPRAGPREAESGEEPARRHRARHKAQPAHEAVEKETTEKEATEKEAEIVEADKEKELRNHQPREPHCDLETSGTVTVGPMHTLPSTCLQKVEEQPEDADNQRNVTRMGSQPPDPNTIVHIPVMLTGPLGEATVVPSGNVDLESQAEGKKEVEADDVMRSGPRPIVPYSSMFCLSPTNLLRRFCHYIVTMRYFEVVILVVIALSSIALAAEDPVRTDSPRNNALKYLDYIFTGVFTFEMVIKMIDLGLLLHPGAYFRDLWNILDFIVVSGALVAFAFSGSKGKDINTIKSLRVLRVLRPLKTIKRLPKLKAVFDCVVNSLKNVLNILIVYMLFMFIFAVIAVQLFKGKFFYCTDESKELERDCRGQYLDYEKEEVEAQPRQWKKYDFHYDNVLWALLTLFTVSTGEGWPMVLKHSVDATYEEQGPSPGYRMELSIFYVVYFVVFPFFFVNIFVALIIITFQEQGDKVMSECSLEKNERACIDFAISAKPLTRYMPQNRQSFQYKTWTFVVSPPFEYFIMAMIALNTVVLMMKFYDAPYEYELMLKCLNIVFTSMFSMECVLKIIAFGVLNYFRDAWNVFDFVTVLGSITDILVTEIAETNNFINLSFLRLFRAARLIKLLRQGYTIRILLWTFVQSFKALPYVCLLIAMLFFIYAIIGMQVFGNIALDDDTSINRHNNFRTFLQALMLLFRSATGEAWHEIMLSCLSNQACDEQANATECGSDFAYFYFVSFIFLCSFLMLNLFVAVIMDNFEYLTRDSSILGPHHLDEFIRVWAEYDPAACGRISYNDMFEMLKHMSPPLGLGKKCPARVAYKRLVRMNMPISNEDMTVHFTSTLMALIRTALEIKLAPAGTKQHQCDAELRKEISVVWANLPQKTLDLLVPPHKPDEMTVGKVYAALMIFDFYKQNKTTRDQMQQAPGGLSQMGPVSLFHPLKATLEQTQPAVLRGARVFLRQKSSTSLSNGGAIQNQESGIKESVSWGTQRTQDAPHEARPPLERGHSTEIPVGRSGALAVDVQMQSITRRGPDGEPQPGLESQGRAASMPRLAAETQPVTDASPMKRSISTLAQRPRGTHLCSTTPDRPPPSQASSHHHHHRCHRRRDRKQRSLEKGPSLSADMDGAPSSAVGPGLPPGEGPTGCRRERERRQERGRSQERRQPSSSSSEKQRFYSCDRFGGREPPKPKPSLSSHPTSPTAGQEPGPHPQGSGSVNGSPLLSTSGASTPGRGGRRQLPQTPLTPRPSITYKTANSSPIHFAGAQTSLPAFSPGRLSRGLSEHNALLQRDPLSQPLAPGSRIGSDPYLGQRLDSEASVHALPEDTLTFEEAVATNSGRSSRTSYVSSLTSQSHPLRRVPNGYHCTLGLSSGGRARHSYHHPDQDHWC
T1 sequence (Q02410 whole entry): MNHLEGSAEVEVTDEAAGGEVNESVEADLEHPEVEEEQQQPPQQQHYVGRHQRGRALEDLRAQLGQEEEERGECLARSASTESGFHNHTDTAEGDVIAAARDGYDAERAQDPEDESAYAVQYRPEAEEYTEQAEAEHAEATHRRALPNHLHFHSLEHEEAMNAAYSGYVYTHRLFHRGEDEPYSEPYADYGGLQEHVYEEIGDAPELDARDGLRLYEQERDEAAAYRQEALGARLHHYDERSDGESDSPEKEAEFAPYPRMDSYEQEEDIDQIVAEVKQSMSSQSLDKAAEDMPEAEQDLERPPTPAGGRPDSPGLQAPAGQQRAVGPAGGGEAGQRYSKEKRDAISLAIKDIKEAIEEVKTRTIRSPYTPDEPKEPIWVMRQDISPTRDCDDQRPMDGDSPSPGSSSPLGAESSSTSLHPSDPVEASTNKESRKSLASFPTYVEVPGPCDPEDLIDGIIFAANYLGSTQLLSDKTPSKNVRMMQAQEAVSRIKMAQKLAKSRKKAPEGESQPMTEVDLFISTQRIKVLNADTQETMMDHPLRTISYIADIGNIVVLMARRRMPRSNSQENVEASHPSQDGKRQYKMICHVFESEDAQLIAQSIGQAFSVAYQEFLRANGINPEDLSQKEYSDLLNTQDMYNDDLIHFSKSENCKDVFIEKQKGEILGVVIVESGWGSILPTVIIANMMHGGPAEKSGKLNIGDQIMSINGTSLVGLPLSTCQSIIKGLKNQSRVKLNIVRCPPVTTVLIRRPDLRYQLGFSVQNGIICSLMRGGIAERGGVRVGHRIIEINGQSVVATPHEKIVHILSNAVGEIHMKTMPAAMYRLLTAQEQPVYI

[3] = biological target: T1, Voltage-gated N-type calcium channel alpha-1B subunit/Amyloid beta A4 precursor protein-binding family A member 1; type: protein assay; remark: listed apart in the source
[4] = HEK-293T cell viability reduction – luminescence, B-cell screen hits, cytotoxicity control for BCR NF-kB inhibitor project, dose response (AID 489021); type: functional, cell-based;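 note: HEK-293T cells carrying an NF-kB luciferase reporter; cells exposed to compound for about 14 hours before viability readout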
Estrogen receptor = biological target: T2, Estrogen receptor (Homo sapiens, UniProt P03372);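 note: potency for inhibiting coactivator peptide recruitment to the receptor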
T2 sequence (P03372 whole entry): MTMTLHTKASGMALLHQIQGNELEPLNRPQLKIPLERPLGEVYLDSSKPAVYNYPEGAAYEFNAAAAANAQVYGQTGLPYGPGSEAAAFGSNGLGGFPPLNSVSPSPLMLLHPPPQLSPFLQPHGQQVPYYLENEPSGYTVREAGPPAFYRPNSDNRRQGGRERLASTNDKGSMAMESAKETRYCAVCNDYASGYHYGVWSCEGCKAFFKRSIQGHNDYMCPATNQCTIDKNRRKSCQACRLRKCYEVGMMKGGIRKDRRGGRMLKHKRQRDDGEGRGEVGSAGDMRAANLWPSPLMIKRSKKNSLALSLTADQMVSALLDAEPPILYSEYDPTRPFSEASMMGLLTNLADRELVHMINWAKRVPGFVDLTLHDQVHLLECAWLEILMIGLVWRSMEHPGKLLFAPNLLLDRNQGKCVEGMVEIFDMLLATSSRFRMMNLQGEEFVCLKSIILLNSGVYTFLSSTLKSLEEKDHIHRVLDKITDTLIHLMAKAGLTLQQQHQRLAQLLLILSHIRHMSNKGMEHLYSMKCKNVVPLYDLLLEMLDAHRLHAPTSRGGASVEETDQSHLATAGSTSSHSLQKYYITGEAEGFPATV

Aminopeptidase N = biological target: T3, Aminopeptidase N (Plasmodium falciparum FcB1/Columbia, UniProt O96935); experiment: malaria alanyl aminopeptidase activity blockers – biochemical, fluorogenic H-Leu-NHMec substrate, 1536-well (AID 1445); parameters: species or system Plasmodium falciparum 3D7, 3D7
T3 sequence (O96935 whole entry): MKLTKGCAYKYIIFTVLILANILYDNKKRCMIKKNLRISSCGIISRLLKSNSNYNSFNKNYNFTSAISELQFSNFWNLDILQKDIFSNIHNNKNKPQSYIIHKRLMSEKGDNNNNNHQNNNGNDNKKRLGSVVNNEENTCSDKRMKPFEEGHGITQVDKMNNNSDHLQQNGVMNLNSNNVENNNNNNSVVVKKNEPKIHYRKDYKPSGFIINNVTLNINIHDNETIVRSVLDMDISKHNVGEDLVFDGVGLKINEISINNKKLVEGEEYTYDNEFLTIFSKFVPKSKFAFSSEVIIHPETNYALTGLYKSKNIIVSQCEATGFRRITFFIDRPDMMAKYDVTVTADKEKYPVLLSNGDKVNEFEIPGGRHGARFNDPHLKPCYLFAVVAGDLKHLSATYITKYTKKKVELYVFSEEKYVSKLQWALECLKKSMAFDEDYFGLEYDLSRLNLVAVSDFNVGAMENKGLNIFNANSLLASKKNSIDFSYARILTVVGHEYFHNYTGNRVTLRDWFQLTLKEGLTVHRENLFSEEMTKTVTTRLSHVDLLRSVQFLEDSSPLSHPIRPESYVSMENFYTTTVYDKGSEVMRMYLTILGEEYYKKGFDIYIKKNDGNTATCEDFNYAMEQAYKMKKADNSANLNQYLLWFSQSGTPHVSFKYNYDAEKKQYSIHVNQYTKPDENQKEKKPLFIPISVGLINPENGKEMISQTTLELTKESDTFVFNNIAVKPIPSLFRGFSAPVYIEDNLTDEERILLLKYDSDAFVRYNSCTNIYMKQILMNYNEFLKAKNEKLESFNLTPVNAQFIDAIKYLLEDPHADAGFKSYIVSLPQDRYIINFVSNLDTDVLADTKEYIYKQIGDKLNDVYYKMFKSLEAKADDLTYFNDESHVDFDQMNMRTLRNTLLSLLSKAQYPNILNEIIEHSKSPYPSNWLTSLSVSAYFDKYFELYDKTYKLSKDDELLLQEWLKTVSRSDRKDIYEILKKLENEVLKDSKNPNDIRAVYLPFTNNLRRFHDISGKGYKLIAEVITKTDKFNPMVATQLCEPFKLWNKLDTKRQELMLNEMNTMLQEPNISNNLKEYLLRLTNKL

[5] = HPDE-C7 pancreatic duct cell viability loss – fluorescence, HTS (AID 430); type: functional, cell-based; conditions: Homo sapiens
[6] = viability loss of HPDE-C7K cells – cell-based, fluorescence, HTS, primary screen (AID 431); type: functional; conditions: Homo sapiens
[7] = biological target: T4, Replicative DNA helicase DnaB (Mycobacterium tuberculosis, UniProt P9WMR3); experiment: DnaB intein splicing inhibitors, dose response, biochemical, cell-free fluorescence (AID 449749); type: functional
T4 sequence (P9WMR3 whole entry): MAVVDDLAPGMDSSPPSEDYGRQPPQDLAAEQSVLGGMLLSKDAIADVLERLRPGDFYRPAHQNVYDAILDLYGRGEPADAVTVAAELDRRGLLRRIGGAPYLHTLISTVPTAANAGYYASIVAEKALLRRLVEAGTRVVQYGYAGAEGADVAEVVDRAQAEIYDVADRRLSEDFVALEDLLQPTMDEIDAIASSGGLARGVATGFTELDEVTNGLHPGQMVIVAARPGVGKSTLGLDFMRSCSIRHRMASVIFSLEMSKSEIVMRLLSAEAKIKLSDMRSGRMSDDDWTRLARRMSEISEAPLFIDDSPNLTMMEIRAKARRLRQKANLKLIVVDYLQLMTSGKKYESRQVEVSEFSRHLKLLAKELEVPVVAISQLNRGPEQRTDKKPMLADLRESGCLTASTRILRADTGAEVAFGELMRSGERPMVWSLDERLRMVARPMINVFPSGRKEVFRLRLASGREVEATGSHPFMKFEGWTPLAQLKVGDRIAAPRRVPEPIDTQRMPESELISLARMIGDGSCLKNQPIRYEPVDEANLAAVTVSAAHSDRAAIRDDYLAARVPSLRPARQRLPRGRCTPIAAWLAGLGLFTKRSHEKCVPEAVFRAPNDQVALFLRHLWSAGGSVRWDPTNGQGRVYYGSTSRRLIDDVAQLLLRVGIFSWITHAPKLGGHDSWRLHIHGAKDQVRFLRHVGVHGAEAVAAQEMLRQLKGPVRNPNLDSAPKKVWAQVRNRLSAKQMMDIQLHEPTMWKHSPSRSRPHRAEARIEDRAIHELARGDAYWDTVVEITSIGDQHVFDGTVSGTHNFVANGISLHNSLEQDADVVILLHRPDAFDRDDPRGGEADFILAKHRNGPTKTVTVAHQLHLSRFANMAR

Protein RecA = biological target: T5, Protein RecA (Mycobacterium tuberculosis, UniProt P9WHJ3); experiment: Fluorescence Cell-Free Homogeneous Dose Retest to Identify Inhibitors of RecA-Intein Splicing Activity. [Related pubchem assays (depositor defined):AID2097, AID2223, AID489010, AID492950]; type: functional
T5 sequence (P9WHJ3 whole entry): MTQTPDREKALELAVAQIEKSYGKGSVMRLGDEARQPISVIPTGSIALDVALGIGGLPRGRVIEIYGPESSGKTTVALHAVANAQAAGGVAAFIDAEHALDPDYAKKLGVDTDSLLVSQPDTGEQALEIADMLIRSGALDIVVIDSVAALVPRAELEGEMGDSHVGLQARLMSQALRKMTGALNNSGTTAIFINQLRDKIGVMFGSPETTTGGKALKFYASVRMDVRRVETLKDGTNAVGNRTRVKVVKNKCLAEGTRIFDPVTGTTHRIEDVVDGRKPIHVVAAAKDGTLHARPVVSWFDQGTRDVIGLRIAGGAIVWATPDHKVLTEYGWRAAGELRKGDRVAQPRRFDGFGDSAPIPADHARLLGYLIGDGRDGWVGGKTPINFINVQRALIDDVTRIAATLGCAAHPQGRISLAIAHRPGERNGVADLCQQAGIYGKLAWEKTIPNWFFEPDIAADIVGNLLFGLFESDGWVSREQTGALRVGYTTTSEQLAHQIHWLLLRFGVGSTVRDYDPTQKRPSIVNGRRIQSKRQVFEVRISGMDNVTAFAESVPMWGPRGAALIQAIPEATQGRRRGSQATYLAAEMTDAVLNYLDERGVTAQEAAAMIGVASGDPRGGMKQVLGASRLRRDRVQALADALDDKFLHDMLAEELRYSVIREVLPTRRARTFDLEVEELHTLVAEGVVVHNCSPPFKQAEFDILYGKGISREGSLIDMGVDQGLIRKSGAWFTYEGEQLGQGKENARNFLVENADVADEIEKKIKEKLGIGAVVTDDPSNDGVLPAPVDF

Large T antigen = Large T antigen (Simian virus 40, UniProt P03070); type: functional, Betapolyomavirus macacae;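 note: Confirmatory-stage PubChem screen for compounds that inhibit SV40 T antigen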
Chain of Large T antigen (P03070 whole entry): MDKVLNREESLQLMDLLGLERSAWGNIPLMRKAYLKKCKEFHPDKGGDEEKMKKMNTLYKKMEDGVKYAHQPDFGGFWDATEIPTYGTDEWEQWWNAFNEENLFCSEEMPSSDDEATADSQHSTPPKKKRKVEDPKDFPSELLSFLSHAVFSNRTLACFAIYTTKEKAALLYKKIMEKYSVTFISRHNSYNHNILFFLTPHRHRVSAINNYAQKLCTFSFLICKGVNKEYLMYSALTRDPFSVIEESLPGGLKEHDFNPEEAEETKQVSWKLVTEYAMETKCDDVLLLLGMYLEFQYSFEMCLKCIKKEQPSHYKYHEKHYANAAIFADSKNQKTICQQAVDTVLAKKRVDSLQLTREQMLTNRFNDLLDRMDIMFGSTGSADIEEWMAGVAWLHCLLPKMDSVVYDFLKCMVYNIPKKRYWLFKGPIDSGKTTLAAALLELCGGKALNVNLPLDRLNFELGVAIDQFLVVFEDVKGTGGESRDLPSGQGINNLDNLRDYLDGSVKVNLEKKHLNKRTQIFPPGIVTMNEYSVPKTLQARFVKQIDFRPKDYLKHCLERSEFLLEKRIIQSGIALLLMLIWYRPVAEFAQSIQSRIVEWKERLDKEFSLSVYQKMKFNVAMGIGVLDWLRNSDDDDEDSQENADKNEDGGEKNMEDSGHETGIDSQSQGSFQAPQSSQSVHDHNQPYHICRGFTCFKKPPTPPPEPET

[8] = biological target: FAD-linked sulfhydryl oxidase ALR (Homo sapiens, UniProt P55789); experiment: ALR-catalysed DTT oxidation blockers – biochemical, H2O2 detection, luminescence, cherry-pick, dose response (AID 493248)
Chain of FAD-linked sulfhydryl oxidase ALR (P55789 whole entry): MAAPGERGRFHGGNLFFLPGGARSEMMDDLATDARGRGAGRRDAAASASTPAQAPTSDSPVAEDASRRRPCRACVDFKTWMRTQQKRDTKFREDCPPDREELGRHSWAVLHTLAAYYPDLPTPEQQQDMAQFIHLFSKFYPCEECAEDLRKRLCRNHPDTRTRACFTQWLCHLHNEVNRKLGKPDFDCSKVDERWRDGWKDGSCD

[9] = biological target: T6, Polyadenylate-binding protein 1 (Homo sapiens, UniProt P11940); experiment: MLLE binding blockers, Cy5 peptide tracer – biochemical, fluorescence polarization, Cy5-PAM2 peptide, secondary, miRNA deadenylation inhibitor project, dose response (AID 602260); type: functional; conditions: read-out: IC50_Mean
T6 sequence (P11940 whole entry, the tested form may be a part): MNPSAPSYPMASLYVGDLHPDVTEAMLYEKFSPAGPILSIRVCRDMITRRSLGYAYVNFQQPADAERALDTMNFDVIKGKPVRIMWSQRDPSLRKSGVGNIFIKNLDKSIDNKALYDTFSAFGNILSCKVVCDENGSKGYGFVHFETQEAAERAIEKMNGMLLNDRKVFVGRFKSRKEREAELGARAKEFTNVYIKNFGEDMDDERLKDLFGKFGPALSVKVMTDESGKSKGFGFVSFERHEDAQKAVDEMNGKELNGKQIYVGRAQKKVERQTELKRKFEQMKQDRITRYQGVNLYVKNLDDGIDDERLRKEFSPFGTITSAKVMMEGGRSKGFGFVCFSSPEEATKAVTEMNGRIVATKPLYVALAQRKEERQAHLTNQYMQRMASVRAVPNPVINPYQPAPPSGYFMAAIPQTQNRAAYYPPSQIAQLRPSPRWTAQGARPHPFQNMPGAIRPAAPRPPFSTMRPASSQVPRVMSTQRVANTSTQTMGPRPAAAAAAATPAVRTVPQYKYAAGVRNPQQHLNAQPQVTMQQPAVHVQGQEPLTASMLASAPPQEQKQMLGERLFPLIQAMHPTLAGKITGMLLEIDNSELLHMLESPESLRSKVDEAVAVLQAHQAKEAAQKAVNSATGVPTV

[10] = biological target: T6, Polyadenylate-binding protein 1; experiment: MLLE domain peptide-binding blockers, IC50 – biochemical, fluorescence polarization, FITC-PAM2 peptide, dose response (AID 602259); type: functional; conditions: read-out: IC50_Mean
[11] = NIH-3T3 fibroblast cytotoxicity, dose response, cytotoxicity control, cell-based, fluorescence, Alamar Blue, secondary assay (AID 2327); type: functional;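 note: NIH-3T3 mouse fibroblasts cultured with fluconazole at 8 µg/mL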
[12] = viability loss in THP-1 monocytes – THP-1 cells, cytotoxicity control for Vif-APOBEC3G degradation inhibitor project, dose response (AID 1117359); type: functional; conditions: THP-1
[13] = Trypanosoma cruzi growth suppression in host cells – NIH3T3 host cells, beta-gal luminescence, confirmation (AID 2044); type: functional, cell-based;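 note: intracellular parasites grown in NIH/3T3 mouse fibroblasts as host cells; luminescent beta-galactosidase reporter signal from transgenic T. cruzi replicating inside host cells; inhibitors lower the luminescence signal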
HEK293 [14] = experiment: NOD2 signaling inhibitors in MDP-stimulated cells, cell-based, uHTS, luminescence (AID 2001); type: functional; conditions: Homo sapiens
HEK293 [15] = experiment: cells; type: functional, cell-based; conditions: Homo sapiens
HEK293 [16] = experiment: EBV LMP1 TES2 canonical NF-kB signalling blockers – cell-based, HEK293, luciferase, cherry-pick, dose response (AID 588343); type: functional; conditions: Homo sapiens
[17] = NIH3T3 cell viability loss – ATP luminescence, mouse fibroblasts, counter-screen, dose response (AID 2010); type: functional, cell-based;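 note: cells exposed to compound for about 90 hours before reading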
[18] = viability of HCT116 lacking mutant beta-catenin – cell-based, human colon tumor, dose response (AID 1045); type: functional;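 note: HCT116 colon tumor cells with beta catenin knocked out; cells exposed to compound for 60 hours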
[19] = viability of PTEN-deleted HCT116 cells – cell-based, HCT116 PTEN knockout, dose response (AID 1047); type: functional;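 note: HCT116 colon tumor cells with PTEN knocked out; cells exposed to compound for 60 hours before readout; potency for loss of cell viability measured by luminescence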
HEK293 [20] = experiment: inhibition of NOD1-driven NF-kB reporter – cell-based, luminescence, uHTS, primary screen (AID 1578); type: functional; conditions: Homo sapiens
HEK293 [21] = experiment: cells; type: functional, cell-based; conditions: Homo sapiens; remark: listed apart in the source

Chain of Induced myeloid leukemia cell differentiation protein Mcl-1 (Q07820 whole entry): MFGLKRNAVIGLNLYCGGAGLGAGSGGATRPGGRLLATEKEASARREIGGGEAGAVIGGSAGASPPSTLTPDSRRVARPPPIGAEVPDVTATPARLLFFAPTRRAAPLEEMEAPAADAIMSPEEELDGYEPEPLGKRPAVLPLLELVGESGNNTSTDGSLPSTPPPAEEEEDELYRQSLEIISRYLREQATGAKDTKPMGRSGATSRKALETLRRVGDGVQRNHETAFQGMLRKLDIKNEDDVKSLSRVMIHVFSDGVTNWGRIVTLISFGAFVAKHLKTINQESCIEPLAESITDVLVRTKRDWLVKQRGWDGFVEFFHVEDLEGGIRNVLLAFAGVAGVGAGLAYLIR

SMILES: O=[N+]([O-])c1ccc(-c2cc(-c3ccc(Cl)cc3)n[nH]2)cc1
- IC50 [1]: 2.5 µM (active)
- IC50 [2]: > 50 µM (inactive)
- IC50 [3]: > 56.8 µM (not active)

SMILES: COc1ccc(/C=C2/SC(=S)N(CCC(=O)O)C2=O)cc1
- IC50 [4]: > 80 µM (inactive)

SMILES: CCOC(=O)CSc1nn(C)c(=S)s1
- IC50 (Estrogen receptor): 7.98 µM (active)

SMILES: COc1ccc(/C=C(\CC(=O)O)c2nc3ccccc3o2)cc1
- IC50 (Aminopeptidase N): 81.5 µM (active)

SMILES: N#CC1=C2SCC(O)(c3ccccc3)N2C(=O)CC1c1cccs1 (stereo unspecified)
- EC50 [5]: 1.44 µM (active)
- EC50 [6]: 1.53 µM (active)

SMILES: N#Cc1c(C#N)c(O)c2ccccc2c1O
- AC50 [7]: > 380 µM (inactive)
- EC50 (Protein RecA): 1.55 µM (active)
- IC50 [2]: 25.8 µM (active)
- IC50 [3]: 3.83 µM (active)

SMILES: N#CC1=C(N)N=C(S)C(C(N)=O)C1c1ccccc1F (stereo unspecified)
- IC50 (Large T antigen): 60 µM (active)
- AC50 [8]: 8.62 µM (active)
- IC50 [9]: > 66 µM (inactive)
- IC50 [2]: > 50 µM (inactive)
- IC50 [3]: 13.6 µM (active)
- IC50 [10]: > 66 µM (inactive)

SMILES: CCOc1ccc(Nc2oc(-c3ccccc3Cl)nc2C#N)cc1
- IC50 (Estrogen receptor): 9.54 µM (active)

SMILES: COc1ccc(C(=O)Oc2c(CN3CCOCC3)cc(Cl)c3cccnc23)cc1
- EC50 [5]: 5.17 µM (active)
- EC50 [11]: > 160 µM (inactive)
- EC50 [6]: 13.4 µM (active)
- CC50 [12]: 5.39 µM (active)

SMILES: CC(=O)Nc1nc(C)c(-c2csc(Nc3cccc([N+](=O)[O-])c3)n2)s1
- EC50 [13]: 0.995 µM (active)
- IC50 (HEK293 [14]): 8.61 µM (active)
- IC50 (HEK293 [15]): 11.1 µM (active)
- AC50 (HEK293 [16]): 2.16 µM (active)
- EC50 [17]: 14.1 µM (active)
- EC50 [18]: 24.8 µM (active)
- EC50 [19]: 18.2 µM (active)
- EC50 (HEK293 [20]): 9.4 µM (active)
- IC50 (HEK293 [21]): 17.1 µM (active)

SMILES: Cc1ccc2nc(O)c(C3=NN(C(=O)CCC(=O)O)C(c4cccs4)C3)c(-c3ccccc3)c2c1 (stereo unspecified)
- IC50 (Aminopeptidase N): 68.9 µM (active)

SMILES: CCCSc1nc(C)c(-c2csc(C(C#N)=C3CCCC3)n2)cc1C#N
- IC50 (Estrogen receptor): 9.34 µM (active)

SMILES: COc1ccc(/C=N/NC(=O)c2cccc(NC(=O)c3ccccc3Cl)c2)cc1OC
- IC50 (Aminopeptidase N): 53.9 µM (active)

SMILES: CC(C)CC(NC(=O)C(COCc1ccccc1)NC(=O)OC(C)(C)C)C(=O)NN (stereo unspecified) (Boc-Ser(Bn)-Leu-NHNH2; configuration not given here)
- IC50 (Aminopeptidase N): 81.4 µM (active)
